Columns and labels:
[1] = test system: ethanol-responsive myoclonus (PHM, MD); assay: Five-patient open-label trial of sodium oxybate, blinded UMRS (patients #1-3); type: in vivo, human; details: for UMRS section 2 (myoclonus at rest) score: range 0-128; for UMRS section 1 (patient questionnaire) score: range 0-44; for UMRS section 6 (global disability score): range 0-4; for UMRS section 3 (stimulus sensitivity) score: range 0-17; for UMRS section 5 (functional tests) score: range 0-20, 0 gm score 20; for UMRS section 4 (myoclonus with action) score: range 0-160; for UMRS section 5 (functional tests, modified) score: range 0-28
Text: Five patients were enrolled in a trial from the Movement Disorders Division of Columbia University Medical Center during the fall of 2004. All patients were afflicted with hyperkinetic movement disorders that responded to ethanol (defined as a noticeable change to the patient), and all were refractory to treatment with conventional medications or could not tolerate them. The Medical Center's Institutional Review Board approved the trial, and written and verbal informed consent were obtained from all patients prior to enrollment.
The dose and timing of all other drugs were kept constant throughout the trial, and patients were not withdrawn from other medications. Patients #1-3 were examined and videotaped using the Unified Myoclonus Rating Scale (UMRS), and patients #4 and 5 were examined and videotaped using the Washington Heights Inwood Tremor Rating Scale (WHIGET) (see Appendix I). Frucht S. J., et al. Adv Neurol 89:361-76 (2002); Louis, E. D., et al. Mov Disord 16:89-93 (2001).
Side effects were defined as either minor or serious (leading to hospitalization) using good clinical practice standards (www.who.int/medicines/library/par/ggcp/GCPGuidePharmatrials), and patients were asked to report side effects at each visit. After initial examination and videotaping, patients were given 1 gm of sodium oxybate by mouth (2 ml of the standard 0.5 gm/ml solution dissolved in 60 ml of water). One hour later, the senior author repeated the examination and videotaping. […] After two weeks taking 2 gm twice daily, the procedure was repeated after a 3 gm office dose, and finally two weeks after receiving 3 gm twice daily, the procedure was repeated after a 4 gm office dose. The maximum dose allowed in the trial was 4 gm twice daily. Patients and the senior author determined at each visit whether or not to proceed to the next dose level, based principally on their ability to tolerate the most recent dose regimen. After deciding on a maximum tolerated dose, patients received a dose in the office 0.5 gm less and the examination was videotaped.
The entire videotape segments and patient-writing samples from each visit were copied, and were blinded to trial order and identifying features, and were randomly ordered for review using a random number table. A movement disorder expert blinded to trial design and dose schedule, scored each videotape. Sub-scores for each visit were calculated as described previously. Frucht S. J., et al. Adv Neurol 89:361-76 (2002). We modified section 5 of the UMRS in which functional performance (pouring water, using a soup spoon) is performed only with the dominant arm (section V). […] This increased the maximum score of section 5 of the UMRS from 20 to 28.

NREM and REM sleep = details: about 30-60 mg/kg doses, healthy human volunteers; cited from earlier work
[2] = patient 1, listed as sodium oxybate, monosodium salt
[3] = patient 2, 2.5 gm, 0 gm score 4

In the case of `O=C([O-])CCCO.[Na+]` [GHB, 4-hydroxybutanoic acid monosodium salt], the “UMRS section 2 (myoclonus at rest) score” value ([1]; patient 1 1 gm, 0 gm score 3) is reported as 3, the “UMRS section 1 (patient questionnaire) score” value ([1]; patient 1 3 gm, 0 gm score 33) is reported as 31 and the “UMRS section 6 (global disability score)” value ([1]; patient 1, 1 gm, 0 gm score 4) is reported as 3. For the same compound, the “UMRS section 3 (stimulus sensitivity) score” value ([1]; patient 1, 1 gm, 0 gm score 8) was 3, the “UMRS section 5 (functional tests) score” value ([1]; patient 1, 1 gm) was 20 and the “UMRS section 4 (myoclonus with action) score” value ([1]; patient 1, 1 gm, 0 gm score 108) was 96. The “UMRS section 6 (global disability score)” value ([1]; patient 1, 2 gm, 0 gm score 4) was 3, the “UMRS section 3 (stimulus sensitivity) score” value ([1]; patient 1, 2 gm, 0 gm score 8) was 1 and the “UMRS section 5 (functional tests) score” value ([1]; patient 1, 2 gm) was 13. The “UMRS section 2 (myoclonus at rest) score” value ([1]; patient 1, 2 gm, 0 gm score 3) was 0, the “UMRS section 4 (myoclonus with action) score” value ([1]; patient 1, 2 gm, 0 gm score 108) was 64 and the “UMRS section 6 (global disability score)” value ([1]; patient 1, 2.5 gm, 0 gm score 4) was 2. For the same compound, the “UMRS section 3 (stimulus sensitivity) score” value ([1]; patient 1, 2.5 gm, 0 gm score 8) was 2, the “UMRS section 5 (functional tests) score” value ([1]; patient 1, 2.5 gm) was 12 and the “UMRS section 2 (myoclonus at rest) score” value ([1]; patient 1, 2.5 gm, 0 gm score 3) was 0. For the same compound, the “UMRS section 4 (myoclonus with action) score” value ([1]; patient 1, 2.5 gm, 0 gm score 108) was 54, the “UMRS section 2 (myoclonus at rest) score” value ([1]; patient 1, 3 gm (asthma exacerbation visit), 0 gm score 3) was 3 and the “UMRS section 6 (global disability score)” value ([1]; patient 1, 3 gm, 0 gm score 4) was 3. The “UMRS section 3 (stimulus sensitivity) score” value ([1]; patient 1, 3 gm, 0 gm score 8) was 3, the “UMRS section 5 (functional tests) score” value ([1]; patient 1, 3 gm) was 15 and the “UMRS section 4 (myoclonus with action) score” value ([1]; patient 1, 3 gm, 0 gm score 108) was 86. For the same compound, the “Rx effect, UMRS section 4 (action myoclonus improved by)” value [1, 2] was 50%, the “Rx effect, UMRS section 5 (functional performance improved by)” value [1, 2] was 40% and the “Rx effect, UMRS section 4” value ([1]; patient 2 (table b)) was 88%. For the same compound, the “UMRS section 6 (global disability score)” value ([1]; patient 2, 1 gm, 0 gm score 1) was 1, the “UMRS section 3 (stimulus sensitivity) score” value ([1]; patient 2, 1 gm, 0 gm score 4) was 2 and the “UMRS section 5 (functional tests, modified) score” value ([1]; patient 2, 1 gm, 0 gm score 10) was 8. The “UMRS section 2 (myoclonus at rest) score” value ([1]; patient 2, 1 gm, 0 gm score 4) was 2, the “UMRS section 4 (myoclonus with action) score” value ([1]; patient 2, 1 gm, 0 gm score 25) was 29 and the “UMRS section 6 (global disability score)” value ([1]; patient 2, 2 gm, 0 gm score 1) was 1. The “UMRS section 3 (stimulus sensitivity) score” value ([1]; patient 2, 2 gm, 0 gm score 4) was 2, the “UMRS section 5 (functional tests, modified) score” value ([1]; patient 2, 2 gm, 0 gm score 10) was 4 and the “UMRS section 2 (myoclonus at rest) score” value ([1]; patient 2, 2 gm, 0 gm score 4) was 3. For the same compound, the “UMRS section 4 (myoclonus with action) score” value ([1]; patient 2, 2 gm, 0 gm score 25) was 9, the “UMRS section 6 (global disability score)” value ([1]; patient 2, 2.5 gm, 0 gm score 1) was 1 and the “UMRS section 3 (stimulus sensitivity) score” value [1, 3] was 0. The “UMRS section 5 (functional tests, modified) score” value ([1]; patient 2, 2.5 gm, 0 gm score 10) was 4, the “UMRS section 2 (myoclonus at rest) score” value [1, 3] was 0 and the “UMRS section 4 (myoclonus with action) score” value ([1]; patient 2, 2.5 gm, 0 gm score 25) was 3. The “UMRS section 6 (global disability score)” value ([1]; patient 2, 3 gm, 0 gm score 1) was 1, the “UMRS section 3 (stimulus sensitivity) score” value ([1]; patient 2, 3 gm, 0 gm score 4) was 0 and the “UMRS section 5 (functional tests, modified) score” value ([1]; patient 2, 3 gm, 0 gm score 10) was 5. For the same compound, the “UMRS section 2 (myoclonus at rest) score” value ([1]; patient 2, 3 gm, 0 gm score 4) was 0, the “UMRS section 4 (myoclonus with action) score” value ([1]; patient 2, 3 gm, 0 gm score 25) was 11 and the “Rx effect, UMRS section 5 (functional performance improved by)” value ([1]; patient 2, listed as sodium oxybate, monosodium salt) was 60%. The “Rx effect, UMRS section 4” value ([1]; patient 3 (table c)) was 57%, the “UMRS section 6 (global disability score)” value ([1]; patient 3, 1 gm, 0 gm score 1) was 1 and the “UMRS section 3 (stimulus sensitivity) score” value ([1]; patient 3, 1 gm, 0 gm score 6) was 2. For the same compound, the “UMRS section 5 (functional tests, modified) score” value ([1]; patient 3, 1 gm, 0 gm score 12) was 13, the “UMRS section 2 (myoclonus at rest) score” value ([1]; patient 3, 1 gm, 0 gm score 15) was 13 and the “UMRS section 4 (myoclonus with action) score” value ([1]; patient 3, 1 gm, 0 gm score 35) was 25. For the same compound, the “UMRS section 6 (global disability score)” value ([1]; patient 3, 2 gm, 0 gm score 1) was 1, the “UMRS section 3 (stimulus sensitivity) score” value ([1]; patient 3, 2 gm, 0 gm score 6) was 3 and the “UMRS section 5 (functional tests, modified) score” value ([1]; patient 3, 2 gm, 0 gm score 12) was 9. The “UMRS section 2 (myoclonus at rest) score” value ([1]; patient 3, 2 gm, 0 gm score 15) was 15, the “UMRS section 4 (myoclonus with action) score” value ([1]; patient 3, 2 gm, 0 gm score 35) was 26 and the “UMRS section 6 (global disability score)” value ([1]; patient 3, 4 gm, 0 gm score 1) was 1. For the same compound, the “UMRS section 3 (stimulus sensitivity) score” value ([1]; patient 3, 4 gm, 0 gm score 6) was 1, the “UMRS section 5 (functional tests, modified) score” value ([1]; patient 3, 4 gm, 0 gm score 12) was 12 and the “UMRS section 1 (patient questionnaire) score” value ([1]; patient 3, 4 gm, 0 gm score 10) was 5. For the same compound, the “UMRS section 2 (myoclonus at rest) score” value ([1]; patient 3, 4 gm, 0 gm score 15) was 10, the “UMRS section 4 (myoclonus with action) score” value ([1]; patient 3, 4 gm, 0 gm score 35) was 15 and the “Rx effect, UMRS section 5 (functional performance improved by)” value ([1]; patient 3, listed as sodium oxybate, monosodium salt) was 25%. For the same compound, the Patient self-assessment scores ([1]; patient #1) was “unchanged”, the “writing and control of spoon” value ([1]; patient #1, one hour after 2.5 gm) was “able to write (although slowly) and their control of the spoon was improved” and the “myoclonic jerks on writing, pouring, using a spoon” value ([1]; patient #2, after 3 gm) was “the amplitude and frequency of the jerks was diminished”. For the same compound, the walking ([1]; patient #3, after 4 gm) was “modestly improved”, the Patient self-assessment scores ([1]; patients #2 and 3) was “improved” and the “Physician global assessment scores (UMRS part 6)” value ([1]; patients #2 and 3, mild (1 out of 4) throughout) was “remained unchanged”. The “Action myoclonus (section 4) improved by” value ([1]; second of patients #1-3 'respectively' in the text (patient #2)) was 57%, the “Action myoclonus (section 4) improved by” value ([1]; third of patients #1-3 'respectively' in the text (patient #3)) was 88% and the “duration of normal sequence of NREM and REM sleep” value (NREM and REM sleep) was 2 to 3 h.

— patent publication US20090137565A1, “Method for treatment of movement disorders” (The Trustees of Columbia University in the City of New York, priority 2004, published 2009)
